Measurements taken from patent US10800741B2 (ANCUREALL PHARMACEUTICAL (SHANGHAI) CO., LTD., priority 2017, dated 2020).

Key:
[1] = system: Huh-7; assay: In vitro growth inhibition of Huh-7 cells; assay type: cell-based; settings: Homo sapiens, FGFR3+++, FGFR4 +++
Procedure: (§1) Adherent cells were digested with 0.25% trypsin-EDTA (Gibco). Suspension culture cells were collected by centrifugation (1700 rpm, 3 minutes). The supernatant was discarded and the cells were counted. According to each cell growth cycle, different concentrations of cells were prepared (5˜10×10^4 cells per ml), and inoculated to 96-well plates (Corning), with 100 μl per well, and incubated overnight at 37° C., 5% CO2. The next day, the test compound was added to the cultured cells (2 wells in parallel). The final concentration of the solvent was less than 1/1,000. The cells were further cultured for 3 to 5 days and assayed by MTT.
(§2) The MTT test reagent was a Dojindo CCK8 kit and the Microplate Reader was a THERMO […] FC instrument.
(§3) The adherent cells were taken out from the cell culture medium, and immediately added to a freshly prepared complete medium containing 10% CCK8 (5% FBS), 100 ul per hole. The suspended cells were directly added to a CCK8 reagent until reaching a final concentration of 10% and cultured for 1 to 4 hours. When a dark yellow color could be observed in the solvent control wells, the absorbance value at OD450 nm was measured and the cell growth rate was calculated according to the following formula: Cell Growth Rate (%)=100×(T−T0)/(C−T0)
(§4) T=optical density of drug-treated cell wells−optical density of blank control wells; T0=optical density of cell wells before drug treatment−optical density of blank control wells; C=optical density of solvent control wells−optical density of blank control wells. […] The experiments were repeated 1 to 3 times and a statistical analysis of data was conducted.
(§5) Mutations in the FGFR1-4 gene often occur in different types of cancer patients. In order to test the growth inhibition activity of the present compound against tumor cells expressing different FGFR variants, tumor cell lines expressing representative FGFR1-4 were selected for further determining the activity of compounds 25, 66, 38 and 95 of the present invention. BGJ398, a selective inhibitor of FGFR1-4, was used as the control compound. The specific test method is the same as test example 1.

[2] = system: SW48; assay: In vitro growth inhibition of PI3KCA amplified/mutant tumor cells SW48; assay type: cell-based; settings: Homo sapiens; SW48; PI3KCA G914R; EGFR G719S; read-out: IC50 growth inhibition
Procedure: as §1, with “Suspension” for “Adherent cells were digested with 0.25% trypsin-EDTA (Gibco). Suspension”
(§6) The adherent cells were taken out from the cell culture medium, and immediately added to a freshly prepared complete medium containing 10% CCK8 (5% FBS), 100 ul per hole. The suspended cells were directly added to a CCK8 reagent until reaching a final concentration of 10% and cultured for 1 to 4 hours.
as §4

[3] = system: Cal-120; assay: In vitro growth inhibition of Cal-120 cells; assay type: cell-based; settings: Homo sapiens, FGFR1 amp
Procedure: as §1, §2, §3, §4, §5

[4] = system: Kasumi-1 (KIT N822K); assay: In vitro growth inhibition of Kasumi-1 tumor cells (MTT/CCK8); assay type: cell-based, Human; settings: Homo sapiens, Kasumi 1; in vitro growth inhibition (or induction of apoptosis), cells cultured 3 to 5 days, MTT (CCK8); read-out: IC50 Kasumi-1 (KIT N822K)
[5] = system: PLC/PRF/5; assay: In vitro growth inhibition of PLC/PRF/5 cells; assay type: cell-based; settings: Homo sapiens, FGFR3+++, FGFR4 +++
Procedure: as §1, §2, §3, §4, §5

[6] = system: SNU-16; assay: In vitro growth inhibition of SNU-16 cells; assay type: cell-based; settings: Homo sapiens, FGFR2 amp
Procedure: as §1, §2, §3, §4, §5

[7] = system: KCL-22 (BCR-ABL); assay: In vitro growth inhibition of KCL-22 tumor cells (MTT/CCK8); assay type: cell-based, Human; settings: Homo sapiens, KCL-22; in vitro growth inhibition (or induction of apoptosis), cells cultured 3 to 5 days, MTT (CCK8); read-out: IC50 KCL-22 (BCR-ABL)
[8] = system: HGC-27; assay: In vitro growth inhibition of PI3KCA amplified/mutant tumor cells HGC-27; assay type: cell-based; settings: Homo sapiens; HGC-27; PI3KCA H1047R; FGFR1OP2+++; read-out: IC50 growth inhibition
Procedure: as §1, with “Suspension” for “Adherent cells were digested with 0.25% trypsin-EDTA (Gibco). Suspension”
as §6, §4

[9] = system: H1703 (PDGFRa amp); assay: In vitro growth inhibition of H1703 tumor cells (MTT/CCK8); assay type: cell-based, Human; settings: Homo sapiens, NCI-H1703; in vitro growth inhibition (or induction of apoptosis), cells cultured 3 to 5 days, MTT (CCK8); read-out: IC50 H1703 (PDGFRa amp)
[10] = system: SK-OV-3; assay: In vitro growth inhibition of PI3KCA amplified/mutant tumor cells SK-OV-3; assay type: cell-based; settings: Homo sapiens; SK-OV-3; PI3KCA H1047R; HER2 amp; read-out: IC50 growth inhibition
Procedure: as §1, with “Suspension” for “Adherent cells were digested with 0.25% trypsin-EDTA (Gibco). Suspension”
as §6, §4

[11] = system: HCT116; assay: In vitro growth inhibition of PI3KCA amplified/mutant tumor cells HCT116; assay type: cell-based; settings: Homo sapiens; HCT-116; PI3KCAH1047R; KRAS G13D; read-out: IC50 growth inhibition
Procedure: as §1, with “Suspension” for “Adherent cells were digested with 0.25% trypsin-EDTA (Gibco). Suspension”
as §6, §4

[12] = system: H1581 (FGFR1 amp); assay: In vitro growth inhibition of H1581 tumor cells (MTT/CCK8); assay type: cell-based, Human; settings: Homo sapiens, NCI-H1581; in vitro growth inhibition (or induction of apoptosis), cells cultured 3 to 5 days, MTT (CCK8); read-out: IC50 H1581 (FGFR1 amp)
[13] = system: KYSE70; assay: In vitro growth inhibition of PI3KCA amplified/mutant tumor cells KYSE70; assay type: cell-based; settings: Homo sapiens, KYSE-70; KYSE70; PI3KCA amp; KIT G779C; read-out: IC50 growth inhibition
Procedure: as §1, with “Suspension” for “Adherent cells were digested with 0.25% trypsin-EDTA (Gibco). Suspension”
as §6, §4

| IC50 [1] | IC50 [2] | IC50 [4] | IC50 [6] | IC50 [7] | IC50 [8] | IC50 [9] | IC50 [10] | IC50 [11] | IC50 [12] | IC50 [13] | SMILES | IC50 [3] | IC50 [5] |
| --- | --- | --- | --- | --- | --- | --- | --- | --- | --- | --- | --- | --- | --- |
| 3.99 nM | 13.6 nM | 1.32 nM | 2.03 nM | 0.481 nM | 19.2 nM | 1.81 nM | 32.3 nM | 11.9 nM | 0.29 nM | 9.7 nM | COc1cc2nccc(Oc3ccc(NC(=O)Nc4cc(C(C)(C)C)nn4C)c(Cl)c3Cl)c2cc1C(N)=O [Compound 38, 4-{4-[3-(5-tert-butyl-2-methyl-2H-pyrazol-3-yl)-ureido]-2,3-dichloro-phenoxy}-7-methoxyquinolin-6-carboxamide] | 9.77 nM | 2.08 nM |
| 1.98 nM | 28.2 nM | 1.13 nM | 1.01 nM | 3.12 nM | 39.9 nM | 7.54 nM | 42.3 nM | 26.7 nM | 2.03 nM | 29.6 nM | COCCOc1cc2nccc(Oc3ccc(NC(=O)Nc4cc(C(C)(C)C)n[nH]4)c(Cl)c3)c2cc1NC(C)=O [Compound 66, N-[4-{4-[3-(5-tert-butyl-2H-pyrazol-3-yl)-ureido]-3-chloro-phenoxy}-7-(2-methoxy-ethoxy)-quinolin-6-yl]-acetamide] | 9.77 nM | 2.67 nM |
| 7.89 nM | 41.9 nM | 1.34 nM | 3.34 nM | 7.03 nM | 30.9 nM | 3.81 nM | 26.4 nM | 33.2 nM | 7.88 nM | 18.9 nM | CN1CCN(CCCOc2cc3nccc(Oc4ccc(NC(=O)Nc5cc(C(C)(C)C)n[nH]5)c(Cl)c4Cl)c3cc2C(N)=O)CC1 [Compound 95] | 9.77 nM | 2.37 nM |
